Test results taken from patent EP3046573B1, “AMYLIN ANALOGUES” (Zealand Pharma A/S, priority 2013, dated 2015).
Where two headings read alike, the source gives them in different places. Numbered stars: 1 amine (or outer) side, 2 acyl side, 3 side chain; on linkers, the order of the positions; unused ones are H or OH. Bridge positions count the residues as written; N and C are the ends. Square brackets hold non-standard residues; d marks the D form. Peptide text beside a SMILES is read from it. * marks the point of attachment. Pro(trans-4-Ph) = O=C(O)[C@@H]1C[C@@H](c2ccccc2)CN1; Pro(4R-Bn) = O=C(O)[C@@H]1C[C@@H](Cc2ccccc2)CN1; C20 diacid = O=C(O)CCCCCCCCCCCCCCCCCCC(=O)*; Pro(4R-NH2) = N[C@H]1CN[C@H](C(=O)O)C1; γGlu = O=C(O)[C@H](CCC(=O)[*:2])N[*:1]; NMeI = CC[C@H](C)[C@H](NC)C(=O)O; Pip = O=C(O)[C@@H]1CCCCN1; Sar = CNCC(=O)O

What was measured:
[1] = target: T1, human calcitonin receptor (hCTR2) (Homo sapiens, UniProt P30988); experiment: hCTR2 assay: induction of cAMP (AlphaScreen cAMP Assay kit) in COS7 cells expressing hCTR2; assay type: cell-based
T1 construct: expressed in transfected cells
T1 sequence (P30988 25-474): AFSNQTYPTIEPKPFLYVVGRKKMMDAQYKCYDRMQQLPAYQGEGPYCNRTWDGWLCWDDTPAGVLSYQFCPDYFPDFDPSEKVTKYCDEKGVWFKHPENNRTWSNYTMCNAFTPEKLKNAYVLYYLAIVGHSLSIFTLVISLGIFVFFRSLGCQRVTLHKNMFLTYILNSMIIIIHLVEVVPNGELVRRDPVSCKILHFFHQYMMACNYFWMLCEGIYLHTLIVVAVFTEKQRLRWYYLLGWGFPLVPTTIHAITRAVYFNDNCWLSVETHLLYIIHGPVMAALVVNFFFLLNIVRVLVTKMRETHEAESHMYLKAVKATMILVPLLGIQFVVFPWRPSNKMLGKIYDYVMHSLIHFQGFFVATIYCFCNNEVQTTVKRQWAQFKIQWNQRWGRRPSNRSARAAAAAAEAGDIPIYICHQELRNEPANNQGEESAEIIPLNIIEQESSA
Outline: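 Cells were seeded one day ahead, washed, then exposed to rising peptide concentrations for 15 min at 37° C in the presence of 100 µM IBMX. After lysis for 10 min at room temperature, cAMP was quantified by AlphaScreen and EC50 values derived by 4PL fitting.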

[2] = Solubility assessment (turbidity absorbance at 325 nm); assay type: physicochemical; conditions: stock 2 mg/ml diluted 1:1, ambient temperature (typically 25°C), n=1; for Solubility, Acetate buffer pH 4: 100 mM acetate buffer pH 4.0; for Solubility, Acetate buffer pH 5: 100 mM acetate buffer pH 5.0; for Solubility, Histidine buffer pH 6: 100 mM histidine buffer pH 6.0; for Solubility, Histidine buffer pH 7: 100 mM histidine buffer pH 7.0; for Solubility, Phosphate buffer pH 6: 100 mM phosphate buffer pH 6.0; for Solubility, Phosphate buffer pH 7: 100 mM phosphate buffer pH 7.0; for Solubility, Phosphate buffer pH 7.5: 100 mM phosphate buffer pH7.5
Outline: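 Read-out: turbidity as absorbance at 325 nm (280 nm also read), single samples, ambient temperature of typically 25°C. Samples were a 1:1 mix of 2 mg/ml stock (water, pH 2.5) with 100 mM acetate, histidine or phosphate buffers spanning pH 4.0–7.5. Cut-off: A325 ≤ 0.02 indicates ≥ 1 mg/ml.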

[3] = target: T2, human amylin receptor 3 (hAMYR3) consisting of hCTR2 co-expressed with human Receptor Activity Modifying Protein 3 (hRAMP3) (Homo sapiens, UniProt O60896+P30988); experiment: hAMYR3 assay: induction of cAMP (AlphaScreen cAMP Assay kit) in COS7 cells expressing hAMYR3; assay type: cell-based
T2 construct: expressed in transfected cells
T2 sequence (P30988 25-474): T1 sequence (P30988 25-474)
T2 sequence (O60896 24-148 partner): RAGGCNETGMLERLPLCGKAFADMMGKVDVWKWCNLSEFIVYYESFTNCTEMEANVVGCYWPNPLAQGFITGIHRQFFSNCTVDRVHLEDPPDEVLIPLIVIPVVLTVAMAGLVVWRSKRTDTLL
Outline: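 cAMP accumulation read by AlphaScreen in lysates of RAMP-naive COS7 cells stably transfected with hCTR2 plus hRAMP3. Cells exposed to peptide dilutions for 15 min, 37° C, with 100 µM IBMX; 4PL fitting gave EC50 and efficacy relative to pramlintide.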

Row | EC50 ([1]; cAMP induction in COS7 cells expressing hCTR2, average of a minimum of 3 determinations, read-out: hCTR2 EC50) | EC50 ([3]; cAMP induction in COS7 cells expressing hAMYR3, average of a minimum of 3 determinations, read-out: hAMY R3 EC50) | SMILES | EC50 [1] | Solubility, Acetate buffer pH 4 [2] | Solubility, Acetate buffer pH 5 [2] | Solubility, Histidine buffer pH 6 [2] | Solubility, Histidine buffer pH 7 [2] | Solubility, Phosphate buffer pH 6 [2] | Solubility, Phosphate buffer pH 7 [2] | Solubility, Phosphate buffer pH 7.5 [2] | EC50 [3]
1 | – | – | CC[C@H](C)[C@@H](C(=O)N[C@@H](CC(C)C)C(=O)N[C@@H](CO)C(=O)N[C@@H](CO)C(=O)N[C@H](C(=O)N[C@@H](CC(N)=O)C(=O)N[C@H](C(=O)NCC(=O)N[C@@H](CO)C(=O)N[C@@H](CC(N)=O)C(=O)N[C@H](C(=O)N1CCCC[C@H]1C(N)=O)[C@@H](C)O)C(C)C)[C@@H](C)O)N(C)C(=O)[C@H](C)NC(=O)CN(C)C(=O)[C@H](Cc1ccccc1)NC(=O)[C@H](CC(N)=O)NC(=O)[C@H](CC(N)=O)NC(=O)[C@H](CO)NC(=O)[C@H](CO)NC(=O)[C@H](CCCNC(=N)N)NC(=O)[C@H](Cc1c[nH]cn1)NC(=O)[C@H](CC(C)C)NC(=O)[C@H](Cc1ccccc1)NC(=O)[C@H](CCC(=O)O)NC(=O)[C@H](C)NC(=O)[C@H](CC(C)C)NC(=O)[C@H](CCCNC(=N)N)NC(=O)[C@H](CCC(N)=O)NC(=O)[C@@H](NC(=O)[C@H](C)NC(=O)[C@@H]1CSSC[C@H](NC(=O)[C@H](CCCNC(=N)N)NC(=O)CC[C@H](NC(=O)CCCCCCCCCCCCCCCCCCC(=O)O)C(=O)O)C(=O)N[C@@H](CC(N)=O)C(=O)N[C@@H]([C@@H](C)O)C(=O)N[C@@H](C)C(=O)N[C@@H]([C@@H](C)O)C(=O)N1)[C@@H](C)O [Compound 109, [19CD]-isoGlu-RC()NTATC()ATQRLAEFLHRSSNNF-Gly(Me)-A-Ile(Me)-LSSTNVGSNT-Pip-NH2] ({C20 diacid-γGlu}-RCNTATCATQRLAEFLHRSSNNF[Sar]A[NMeI]LSSTNVGSNT[Pip]-NH2; disulfide 2-7) | 0.3 nM | SS (SS indicates solubility ≥ 1mg/ml) | SS (SS indicates solubility ≥ 1mg/ml) | SS (SS indicates solubility ≥ 1mg/ml) | SS (SS indicates solubility ≥ 1mg/ml) | II (II indicates solubility ≤ 1 mg/ml) | SS (SS indicates solubility ≥ 1mg/ml) | SS (SS indicates solubility ≥ 1mg/ml) | 0.52 nM
2 | 0.14 nM | 0.21 nM | CC[C@H](C)[C@@H](C(=O)N[C@@H](CC(C)C)C(=O)N[C@@H](CO)C(=O)N[C@@H](CO)C(=O)N[C@H](C(=O)N[C@@H](CC(N)=O)C(=O)N[C@H](C(=O)NCC(=O)N[C@@H](CO)C(=O)N[C@@H](CC(N)=O)C(=O)N[C@H](C(=O)N1C[C@H](N)C[C@H]1C(N)=O)[C@@H](C)O)C(C)C)[C@@H](C)O)N(C)C(=O)CN(C)C(=O)[C@H](Cc1ccccc1)NC(=O)[C@H](CC(N)=O)NC(=O)[C@H](CC(N)=O)NC(=O)[C@H](CO)NC(=O)[C@H](CO)NC(=O)[C@H](CCCNC(=N)N)NC(=O)[C@H](Cc1c[nH]cn1)NC(=O)[C@H](CC(C)C)NC(=O)[C@H](Cc1ccccc1)NC(=O)[C@H](CCC(=O)O)NC(=O)[C@H](C)NC(=O)[C@H](CC(C)C)NC(=O)[C@H](CCCNC(=N)N)NC(=O)[C@H](CCC(N)=O)NC(=O)[C@@H](NC(=O)[C@H](C)NC(=O)[C@@H]1CSSC[C@H](NC(=O)[C@H](CCCNC(=N)N)NC(=O)CC[C@H](NC(=O)CCCCCCCCCCCCCCCCCCC(=O)O)C(=O)O)C(=O)N[C@@H](CC(N)=O)C(=O)N[C@@H]([C@@H](C)O)C(=O)N[C@@H](C)C(=O)N[C@@H]([C@@H](C)O)C(=O)N1)[C@@H](C)O [Compound 111, [19CD]-isoGlu-RC()NTATC()ATQRLAEFLHRSSNNF-Gly(Me)-Ile(Me)-LSSTNVGSNT-Apr-NH2] ({C20 diacid-γGlu}-RCNTATCATQRLAEFLHRSSNNF[Sar][NMeI]LSSTNVGSNT[Pro(4R-NH2)]-NH2; disulfide 2-7) | – | SS (SS indicates solubility ≥ 1mg/ml) | SS (SS indicates solubility ≥ 1mg/ml) | SS (SS indicates solubility ≥ 1mg/ml) | SS (SS indicates solubility ≥ 1mg/ml) | SS (SS indicates solubility ≥ 1mg/ml) | SS (SS indicates solubility ≥ 1mg/ml) | SS (SS indicates solubility ≥ 1mg/ml) | –
3 | – | – | CC[C@H](C)[C@@H](C(=O)N[C@@H](CC(C)C)C(=O)N[C@@H](CO)C(=O)N[C@@H](CO)C(=O)N[C@H](C(=O)N[C@@H](CC(N)=O)C(=O)N[C@H](C(=O)NCC(=O)N[C@@H](CO)C(=O)N[C@@H](CC(N)=O)C(=O)N[C@H](C(=O)N1C[C@H](c2ccccc2)C[C@H]1C(N)=O)[C@@H](C)O)C(C)C)[C@@H](C)O)N(C)C(=O)[C@H](C)NC(=O)CN(C)C(=O)[C@H](Cc1ccccc1)NC(=O)[C@H](CC(N)=O)NC(=O)[C@H](CC(N)=O)NC(=O)[C@H](CO)NC(=O)[C@H](CO)NC(=O)[C@H](CCCNC(=N)N)NC(=O)[C@H](Cc1c[nH]cn1)NC(=O)[C@H](CC(C)C)NC(=O)[C@H](Cc1ccccc1)NC(=O)[C@H](CCC(=O)O)NC(=O)[C@H](C)NC(=O)[C@H](CC(C)C)NC(=O)[C@H](CCCNC(=N)N)NC(=O)[C@H](CCC(N)=O)NC(=O)[C@@H](NC(=O)[C@H](C)NC(=O)[C@@H]1CSSC[C@H](NC(=O)[C@H](CCCNC(=N)N)NC(=O)CC[C@H](NC(=O)CCCCCCCCCCCCCCCCCCC(=O)O)C(=O)O)C(=O)N[C@@H](CC(N)=O)C(=O)N[C@@H]([C@@H](C)O)C(=O)N[C@@H](C)C(=O)N[C@@H]([C@@H](C)O)C(=O)N1)[C@@H](C)O [Compound 112, [19CD]-isoGlu-RC()NTATC()ATQRLAEFLHRSSNNF-Gly(Me)-A-Ile(Me)-LSSTNVGSNT-Php-NH2] ({C20 diacid-γGlu}-RCNTATCATQRLAEFLHRSSNNF[Sar]A[NMeI]LSSTNVGSNT[Pro(trans-4-Ph)]-NH2; disulfide 2-7) | 0.16 nM | SS (SS indicates solubility ≥ 1mg/ml) | SS (SS indicates solubility ≥ 1mg/ml) | SS (SS indicates solubility ≥ 1mg/ml) | II (II indicates solubility ≤ 1 mg/ml) | II (II indicates solubility ≤ 1 mg/ml) | SS (SS indicates solubility ≥ 1mg/ml) | II (II indicates solubility ≤ 1 mg/ml) | 0.15 nM
4 | – | – | CC[C@H](C)[C@@H](C(=O)N[C@@H](CC(C)C)C(=O)N[C@@H](CO)C(=O)N[C@@H](CO)C(=O)N[C@H](C(=O)N[C@@H](CC(N)=O)C(=O)N[C@H](C(=O)NCC(=O)N[C@@H](CO)C(=O)N[C@@H](CC(N)=O)C(=O)N[C@H](C(=O)N1C[C@H](Cc2ccccc2)C[C@H]1C(N)=O)[C@@H](C)O)C(C)C)[C@@H](C)O)N(C)C(=O)[C@H](C)NC(=O)CN(C)C(=O)[C@H](Cc1ccccc1)NC(=O)[C@H](CC(N)=O)NC(=O)[C@H](CC(N)=O)NC(=O)[C@H](CO)NC(=O)[C@H](CO)NC(=O)[C@H](CCCNC(=N)N)NC(=O)[C@H](Cc1c[nH]cn1)NC(=O)[C@H](CC(C)C)NC(=O)[C@H](Cc1ccccc1)NC(=O)[C@H](CCC(=O)O)NC(=O)[C@H](C)NC(=O)[C@H](CC(C)C)NC(=O)[C@H](CCCNC(=N)N)NC(=O)[C@H](CCC(N)=O)NC(=O)[C@@H](NC(=O)[C@H](C)NC(=O)[C@@H]1CSSC[C@H](NC(=O)[C@H](CCCNC(=N)N)NC(=O)CC[C@H](NC(=O)CCCCCCCCCCCCCCCCCCC(=O)O)C(=O)O)C(=O)N[C@@H](CC(N)=O)C(=O)N[C@@H]([C@@H](C)O)C(=O)N[C@@H](C)C(=O)N[C@@H]([C@@H](C)O)C(=O)N1)[C@@H](C)O [Compound 114, [19CD]-isoGlu-RC()NTATC()ATQRLAEFLHRSSNNF-Gly(Me)-A-Ile(Me)-LSSTNVGSNT-Bep-NH2] ({C20 diacid-γGlu}-RCNTATCATQRLAEFLHRSSNNF[Sar]A[NMeI]LSSTNVGSNT[Pro(4R-Bn)]-NH2; disulfide 2-7) | 0.21 nM | SS (SS indicates solubility ≥ 1mg/ml) | SS (SS indicates solubility ≥ 1mg/ml) | SS (SS indicates solubility ≥ 1mg/ml) | II (II indicates solubility ≤ 1 mg/ml) | II (II indicates solubility ≤ 1 mg/ml) | II (II indicates solubility ≤ 1 mg/ml) | II (II indicates solubility ≤ 1 mg/ml) | 0.18 nM
